Measurements taken from patent US11739098B2 (BRISTOL-MYERS SQUIBB COMPANY, priority 2017, dated 2023).
pIC50: −log10 of the molar value. Where a name gives a salt, the structure may show the parent alone.

Legend:
Format in all cases: cell-based
human TLR7 = target: T1, human TLR7 (Homo sapiens, UniProt Q9NYK1); experiment: TLR7 inhibition reporter assay (HEK-Blue cells, SEAP reporter, gardiquimod stimulation); conditions: HEK-Blue cells overexpressing human TLR7, SEAP reporter, gardiquimod 7.5 μM
T1 construct: host or cells: HEK-Blue cells (HEK293-derived reporter line)
T1 sequence (Q9NYK1 27-1049): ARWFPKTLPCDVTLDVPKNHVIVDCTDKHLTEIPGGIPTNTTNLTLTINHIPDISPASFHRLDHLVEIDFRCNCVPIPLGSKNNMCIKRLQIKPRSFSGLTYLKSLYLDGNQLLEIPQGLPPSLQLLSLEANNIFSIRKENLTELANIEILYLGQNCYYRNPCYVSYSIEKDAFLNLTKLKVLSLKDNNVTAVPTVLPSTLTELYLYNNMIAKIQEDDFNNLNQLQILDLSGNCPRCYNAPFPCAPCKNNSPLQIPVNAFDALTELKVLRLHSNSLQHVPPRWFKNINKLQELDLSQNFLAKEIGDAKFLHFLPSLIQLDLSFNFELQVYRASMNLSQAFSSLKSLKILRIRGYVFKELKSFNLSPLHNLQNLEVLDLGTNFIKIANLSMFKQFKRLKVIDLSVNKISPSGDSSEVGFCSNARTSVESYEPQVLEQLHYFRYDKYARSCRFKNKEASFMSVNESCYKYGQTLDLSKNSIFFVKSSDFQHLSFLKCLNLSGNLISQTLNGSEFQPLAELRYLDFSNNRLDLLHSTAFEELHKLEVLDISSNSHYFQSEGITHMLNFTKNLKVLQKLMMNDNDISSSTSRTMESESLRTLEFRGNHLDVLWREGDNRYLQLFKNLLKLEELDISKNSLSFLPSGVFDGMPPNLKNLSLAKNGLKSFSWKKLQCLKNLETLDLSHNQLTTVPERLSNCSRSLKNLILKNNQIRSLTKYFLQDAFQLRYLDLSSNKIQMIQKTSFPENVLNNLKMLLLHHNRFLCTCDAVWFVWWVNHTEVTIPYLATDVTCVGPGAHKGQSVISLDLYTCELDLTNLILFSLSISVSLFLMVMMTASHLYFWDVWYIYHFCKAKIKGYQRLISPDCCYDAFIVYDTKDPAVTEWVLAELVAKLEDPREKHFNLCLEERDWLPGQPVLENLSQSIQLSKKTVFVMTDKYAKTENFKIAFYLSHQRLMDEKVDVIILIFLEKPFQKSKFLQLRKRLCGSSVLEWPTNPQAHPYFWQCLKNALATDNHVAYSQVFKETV
Summary of the method: (§1)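 Percent inhibition of agonist-induced SEAP secretion in HEK-Blue cells after 22 h at 37 °C. Stimuli: 7.5 μM gardiquimod, 15.9 μM R848, 5 nM ODN2006 for TLR7, TLR8 and TLR9, added after 30 min compound exposure over a 0.05 nM–50 μM range.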

human TLR8 = target: T2, human TLR8 (Homo sapiens, UniProt Q9NR97); experiment: TLR8 inhibition reporter assay (HEK-Blue cells, SEAP reporter, R848 stimulation); conditions: HEK-Blue cells overexpressing human TLR8, SEAP reporter, R848 15.9 μM
T2 construct: host or cells: HEK-Blue cells (HEK293-derived reporter line)
T2 sequence (Q9NR97 27-1041): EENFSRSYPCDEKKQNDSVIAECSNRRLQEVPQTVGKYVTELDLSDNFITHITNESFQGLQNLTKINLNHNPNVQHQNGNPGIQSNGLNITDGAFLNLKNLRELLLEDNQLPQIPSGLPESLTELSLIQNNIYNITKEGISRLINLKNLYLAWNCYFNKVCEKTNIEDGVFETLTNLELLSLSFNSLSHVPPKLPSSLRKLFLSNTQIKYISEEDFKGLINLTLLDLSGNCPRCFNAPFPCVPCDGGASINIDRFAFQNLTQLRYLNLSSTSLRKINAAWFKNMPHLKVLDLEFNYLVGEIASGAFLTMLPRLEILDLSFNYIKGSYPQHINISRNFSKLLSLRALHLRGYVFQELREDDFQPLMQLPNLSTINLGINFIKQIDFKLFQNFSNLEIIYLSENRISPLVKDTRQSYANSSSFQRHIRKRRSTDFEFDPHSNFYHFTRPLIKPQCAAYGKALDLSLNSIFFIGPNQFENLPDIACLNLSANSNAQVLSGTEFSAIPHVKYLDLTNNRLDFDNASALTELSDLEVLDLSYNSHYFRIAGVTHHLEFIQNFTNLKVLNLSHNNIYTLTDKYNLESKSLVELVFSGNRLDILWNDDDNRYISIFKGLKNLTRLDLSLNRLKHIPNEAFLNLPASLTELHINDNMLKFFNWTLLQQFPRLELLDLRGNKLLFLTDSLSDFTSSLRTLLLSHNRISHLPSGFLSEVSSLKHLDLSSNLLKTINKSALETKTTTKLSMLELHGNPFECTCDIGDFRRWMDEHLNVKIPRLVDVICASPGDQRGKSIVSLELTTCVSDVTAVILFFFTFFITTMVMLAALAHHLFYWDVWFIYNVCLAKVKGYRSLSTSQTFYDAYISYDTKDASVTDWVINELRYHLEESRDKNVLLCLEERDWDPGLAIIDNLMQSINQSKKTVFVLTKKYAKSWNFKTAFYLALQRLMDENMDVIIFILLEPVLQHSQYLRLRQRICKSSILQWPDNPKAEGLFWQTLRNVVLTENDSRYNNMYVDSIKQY
Summary of the method: as §1

human TLR9 = target: T3, human TLR9 (Homo sapiens, UniProt Q9NR96); experiment: TLR9 inhibition reporter assay (HEK-Blue cells, SEAP reporter, ODN2006 stimulation); conditions: HEK-Blue cells overexpressing human TLR9, SEAP reporter, ODN2006 5 nM
T3 construct: host or cells: HEK-Blue cells (HEK293-derived reporter line)
T3 sequence (Q9NR96 26-1032): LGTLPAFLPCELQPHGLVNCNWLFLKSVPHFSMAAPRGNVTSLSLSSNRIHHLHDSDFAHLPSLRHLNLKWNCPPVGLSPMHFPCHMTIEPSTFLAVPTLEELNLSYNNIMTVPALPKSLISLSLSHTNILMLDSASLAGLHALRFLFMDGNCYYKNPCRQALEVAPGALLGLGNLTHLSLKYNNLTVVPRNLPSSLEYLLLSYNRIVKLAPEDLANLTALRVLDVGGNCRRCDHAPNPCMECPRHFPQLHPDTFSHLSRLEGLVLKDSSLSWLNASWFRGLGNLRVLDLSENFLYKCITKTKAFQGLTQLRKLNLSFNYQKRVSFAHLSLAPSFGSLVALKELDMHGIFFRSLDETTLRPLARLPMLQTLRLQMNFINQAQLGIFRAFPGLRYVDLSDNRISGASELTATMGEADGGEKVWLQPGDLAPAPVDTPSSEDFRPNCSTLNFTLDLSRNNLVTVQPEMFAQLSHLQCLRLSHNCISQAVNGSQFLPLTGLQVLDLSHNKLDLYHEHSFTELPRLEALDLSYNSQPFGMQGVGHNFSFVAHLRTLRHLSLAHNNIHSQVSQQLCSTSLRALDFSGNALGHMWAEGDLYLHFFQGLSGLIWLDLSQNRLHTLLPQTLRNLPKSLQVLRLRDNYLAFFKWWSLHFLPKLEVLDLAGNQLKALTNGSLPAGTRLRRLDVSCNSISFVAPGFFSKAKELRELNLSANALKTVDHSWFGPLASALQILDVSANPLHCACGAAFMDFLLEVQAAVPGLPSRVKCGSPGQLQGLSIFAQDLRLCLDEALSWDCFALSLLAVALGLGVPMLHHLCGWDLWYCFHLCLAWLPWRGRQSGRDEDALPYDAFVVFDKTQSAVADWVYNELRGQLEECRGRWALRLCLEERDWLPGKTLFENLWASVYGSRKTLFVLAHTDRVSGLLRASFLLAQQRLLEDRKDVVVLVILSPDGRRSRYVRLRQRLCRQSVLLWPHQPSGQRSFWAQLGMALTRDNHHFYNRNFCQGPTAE
Summary of the method: as §1

| SMILES | pIC50 (human TLR7) | pIC50 (human TLR8) | pIC50 (human TLR9) |
| --- | --- | --- | --- |
| CCc1c(-c2ccc3ncc(C#N)n3n2)[nH]c2ccc(C3CCNCC3)cc12 [Example 102, 6-(3-ethyl-5-(piperidin-4-yl)-1H-indol-2-yl)imidazo [1,2-b]pyridazine-3-carbonitrile] | 4.30 to 6.00 | 4.30 to 6.00 | 4.30 to 6.00 |
| CC(C)c1c(-c2ccnc3[nH]ncc23)[nH]c2ccc(C3CCN(C4CCCNCC4)CC3)cc12 (stereo not drawn) [Example 828, 4-(5-(1-(azepan-4-yl)piperidin-4-yl)-3-isopropyl-1H-indol-2-yl)-1H-pyrazolo[3,4-b]pyridine] | 4.30 to 6.00 | > 7.00 | 6.00 to 7.00 |
| Cc1n[nH]c2nccc(-c3[nH]c4ccc(C5CCN(Cc6cnc[nH]6)CC5)cc4c3C(C)C)c12 [Example 875, 4-(5-(1-((1H-imidazol-5-yl)methyl)piperidin-4-yl)-3-isopropyl-1H-indol-2-yl)-3-methyl-1H-pyrazolo[3,4-b]pyridine] | 6.00 to 7.00 | > 7.00 | 6.00 to 7.00 |
| Cc1c(-c2ccnn3ccnc23)[nH]c2ccc(C3CCN(C4CCN(C(C)C)CC4)CC3)cc12 [Example 807, 8-(5-(1′-isopropyl-[1,4′-bipiperidin]-4-yl)-3-methyl-1H-indol-2-yl)imidazo[1,2-b]pyridazine] | 4.30 to 6.00 | 4.30 to 6.00 | 6.00 to 7.00 |
| CCc1c(-c2ccnc3[nH]ncc23)[nH]c2ccc(C3CCN(CC4(N)CC4)CC3)cc12 [Example 657, 1-((4-(3-ethyl-2-(1H-pyrazolo[3,4-b]pyridin-4-yl)-1H-indol-5-yl)piperidin-1-yl)methyl)cyclopropan-1-amine] | 6.00 to 7.00 | > 7.00 | 6.00 to 7.00 |
| FC(F)Cc1c(-c2ccnc3[nH]ncc23)[nH]c2ccc(C3CCNCC3)cc12 [Example 178, 4-(3-(2,2-difluoroethyl)-5-(piperidin-4-yl)-1H-indol-2-yl)-1H-pyrazolo[3,4-b]pyridine] | 6.00 to 7.00 | 6.00 to 7.00 | 4.30 to 6.00 |
| CCCCc1nc(Cl)c(CN2CCC(c3ccc4[nH]c(-c5ccnc6[nH]ncc56)c(C(C)C)c4c3)CC2)[nH]1 [Example 896, 4-(5-(1-((2-butyl-4-chloro-1H-imidazol-5-yl)methyl)piperidin-4-yl)-3-isopropyl-1H-indol-2-yl)-1H-pyrazolo[3,4-b]pyridine] | 6.00 to 7.00 | > 7.00 | 4.30 to 6.00 |
| Cc1cc2nc(-c3[nH]c4ccc(C5CCNCC5)cc4c3C(C)C)ccn2n1 [Example 149, 5-(3-isopropyl-5-(piperidin-4-yl)-1H-indol-2-yl)-2-methylpyrazolo[1,5-a]pyrimidine] | 6.00 to 7.00 | 4.30 to 6.00 | 4.30 to 6.00 |

More lines, now with the values ahead:

| pIC50 (human TLR7) | pIC50 (human TLR8) | pIC50 (human TLR9) | SMILES |
| --- | --- | --- | --- |
| > 7.00 | > 7.00 | 4.30 to 6.00 | Cc1c(-c2[nH]c3ccc(C4CCN(C(=O)CN(C)C)CC4)cc3c2C(C)C)cn2nnnc2c1C [Example 468, 2-(dimethylamino)-1-(4-(2-(7,8-dimethyltetrazolo[1,5-a]pyridin-6-yl)-3-isopropyl-1H-indol-5-yl)piperidin-1-yl)ethan-1-one] |
| > 7.00 | > 7.00 | 6.00 to 7.00 | Cc1cc(-c2[nH]c3ccc(C4CCNCC4)cc3c2C(C)C)cn2ccnc12 [Example 112, 6-(3-isopropyl-5-(piperidin-4-yl)-1H-indol-2-yl)-8-methylimidazo[1,2-a]pyridine] |
| > 7.00 | > 7.00 | 4.30 to 6.00 | Cc1cc(-c2[nH]c3ccc(C4CCN(CCCS(C)(=O)=O)CC4)cc3c2C(C)C)cn2nnnc12 [Example 787, 6-(3-isopropyl-5-(1-(3-(methylsulfonyl)propyl)piperidin-4-yl)-1H-indol-2-yl)-8-methyltetrazolo[1,5-a]pyridine] |
| > 7.00 | > 7.00 | 6.00 to 7.00 | CNCCN1CCC(c2ccc3[nH]c(-c4ccnc5[nH]ncc45)c(C(C)C)c3c2)CC1 [Example 650, 2-(4-(3-isopropyl-2-(1H-pyrazolo[3,4-b]pyridin-4-yl)-1H-indol-5-yl)piperidin-1-yl)-N-methylethanamine dihydrochloride] |
| > 7.00 | 6.00 to 7.00 | 4.30 to 6.00 | CC(C)c1c(-c2ccc3nnnn3c2)[nH]c2ccc(C3CCN(CC(=O)N(C)C)CC3)cc12 [Example 301, 2-(4-(3-isopropyl-2-(tetrazolo[1,5-a]pyridin-6-yl)-1H-indol-5-yl)piperidin-1-yl)-N,N-dimethylacetamide] |
| > 7.00 | 6.00 to 7.00 | < 4.30 | Cc1cc(-c2[nH]c3ccc(C4CCN(C(=O)CN5CCC(F)(F)C5)CC4)cc3c2C(C)C)cn2nnnc12 [Example 478, 2-(3,3-difluoropyrrolidin-1-yl)-1-(4-(3-isopropyl-2-(8-methyltetrazolo[1,5-a]pyridin-6-yl)-1H-indol-5-yl)piperidin-1-yl)ethan-1-one] |
